Data taken from publication PMC7290078, “Agonist bias and agonist‐dependent antagonism at corticotrophin releasing factor receptors” (Pharmacology Research & Perspectives, 2020).

Columns and labels:
calcitonin receptor = assay: Antagonism of calcitonin-mediated IP1 accumulation in Cos7 cells expressing the human calcitonin receptor; assay type: cell-based; conditions: 100 µmol/L; n = 3
Excerpt: Plasmids containing hCRF1α and hCRF2α (GenBank accession numbers AY457172 and AY449734) were obtained from the cDNA Resource Centre (Bloomsburg University) and are referred to as CRF1 and CRF2 in this manuscript. Hemagglutinin (HA) epitope‐tagged human Calcitonin (CT) receptor (CT(a) splice variant) and myc‐tagged human RAMP1 were used as described previously. ^27 HA‐tagged human calcitonin receptor‐like receptor (CLR), N‐terminal FLAG‐tagged human RAMP3 and N‐terminal myc‐tagged human RAMP3 were a gift from Professor David Poyner (Aston University) and Professor Patrick Sexton (Monash University), respectively. […]
Cos7, HEK‐293S, and HEK‐293T cells were cultured as described previously. ^28 , ^29 Cos7 cells were originally supplied by the ATCC to Associate Professor Nigel Birch (University of Auckland). […] For transfection, cells were counted (Countess CounterTM; Life Technologies) and plated at a density of 20 000 cells per well in 96‐well plates. […]
The IP‐one Gq assay kit (Cisbio) was used to quantify accumulated myo‐inositol‐1‐phosphate (IP1), a by‐product of IP3 produced after receptor‐mediated Gαq activation in Cos7 and HEK‐293S cells. […] Fifteen microliters of sample was then transferred to a 384‐well optiplate and read by an Envision plate reader (PerkinElmer). IP1 concentrations were calculated from a standard curve generated in duplicate. […]

CRF2 receptor (hCRF2α) = molecular target: T1, CRF2 receptor (hCRF2α) (Homo sapiens, UniProt Q13324); assay: Antagonism of agonist-mediated cAMP accumulation in Cos7 cells expressing CRF2 receptors; assay type: cell-based; conditions: for antagonist potency (pKB): hCRF2α, global Schild analysis, mean ± SEM, n = 5
T1 construct: host or cells: Cos7 cells, transient transfection (PEI), pcDNA3.0/3.1 vector
T1 sequence (Q13324 1-411): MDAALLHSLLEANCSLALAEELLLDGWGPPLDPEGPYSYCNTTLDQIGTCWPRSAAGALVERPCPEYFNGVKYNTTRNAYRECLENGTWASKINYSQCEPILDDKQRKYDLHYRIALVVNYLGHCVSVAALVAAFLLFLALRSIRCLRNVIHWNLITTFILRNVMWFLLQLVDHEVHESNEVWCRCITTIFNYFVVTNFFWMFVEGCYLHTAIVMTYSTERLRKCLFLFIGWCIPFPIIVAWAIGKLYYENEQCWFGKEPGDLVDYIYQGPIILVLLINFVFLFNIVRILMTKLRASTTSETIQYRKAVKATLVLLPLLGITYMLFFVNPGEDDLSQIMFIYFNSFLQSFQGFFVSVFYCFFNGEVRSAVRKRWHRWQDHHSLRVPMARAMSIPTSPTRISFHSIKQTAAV
Excerpt: Plasmids containing hCRF1α and hCRF2α (GenBank accession numbers AY457172 and AY449734) were obtained from the cDNA Resource Centre (Bloomsburg University) and are referred to as CRF1 and CRF2 in this manuscript. Hemagglutinin (HA) epitope‐tagged human Calcitonin (CT) receptor (CT(a) splice variant) and myc‐tagged human RAMP1 were used as described previously. ^27 HA‐tagged human calcitonin receptor‐like receptor (CLR), N‐terminal FLAG‐tagged human RAMP3 and N‐terminal myc‐tagged human RAMP3 were a gift from Professor David Poyner (Aston University) and Professor Patrick Sexton (Monash University), respectively. N‐terminal FLAG‐tagged human RAMP2 was used as described previously. ^28 All receptors and RAMPs were cloned in pcDNA3.0 or pcDNA3.1 plasmid vectors. All plasmid inserts were sequenced at the Centre for Genomics, Proteomics and Metabolomics (University of Auckland) and the sequences were verified prior to use.
Cos7, HEK‐293S, and HEK‐293T cells were cultured as described previously. ^28 , ^29 Cos7 cells were originally supplied by the ATCC to Associate Professor Nigel Birch (University of Auckland). HEK‐293S cells were a gift from Professor David Poyner (Aston University) and HEK‐293T cells a gift from Professor John Taylor (University of Auckland). Briefly, all cell lines were cultured in Dulbecco's Modified Eagle Medium (DMEM) supplemented with 8% heat inactivated fetal bovine serum (FBS) and maintained in a humidified incubator at 37°C with 5% CO2. For transfection, cells were counted (Countess CounterTM; Life Technologies) and plated at a density of 20 000 cells per well in 96‐well plates. The cells were transiently transfected 48 hours prior to assaying using polyethylenimine (PEI), as described previously. ^28 , ^29 In all experiments a total of 0.25 μg DNA was transfected per well. In the majority of experiments 0.25 μg DNA of receptor‐containing plasmid or the pcDNA3.1 plasmid without an insert was used. For experiments involving RAMPs, 0.125 μg of receptor DNA and 0.125 μg of RAMP‐containing plasmid DNA were transfected to give a 1:1 ratio of receptor to RAMP. Where the RAMP or receptor were transfected alone, the ratio of DNA was made up with the pcDNA3.1 plasmid.
cAMP accumulation in Cos7 cells transfected with hCRF1α or hCRF2α receptors was measured using the LANCE cAMP detection assay kit (PerkinElmer Life and Analytical Sciences) as described previously. ^30 Briefly, culture media was removed and replaced with DMEM containing 0.1% bovine albumin serum (BSA) and 1 mmol/L 3‐isobutyl‐1‐methylxanthine (IBMX) for 30 minutes at 37°C. Cells were incubated for an additional 15 minutes at 37°C with media or agonist concentrations of 1 pmol/L to 1 µmol/L for agonist only assays or 10 pmol/L to 10 µmol/L concentrations for antagonist experiments. Antagonists were added simultaneously or immediately prior to the addition of agonists. To stop cell stimulation and extract cAMP, the contents of the wells were replaced with 50 µL absolute ethanol. Samples were left at −20°C for a minimum of 10 minutes. The ethanol was evaporated and replaced with 50 µL of cAMP detection buffer. Samples were shaken for 15 minutes before 5 µL cell lysate was transferred to a white 384‐well optiplate and processed for cAMP quantification as described previously. ^31 Samples were read using an Envision plate reader (PerkinElmer). cAMP concentrations were determined from a standard curve generated in duplicate.
In all experiments the position of peptides and antagonists (pharmacology) or transfected receptors (ELISAs) on assay plates was randomized during each independent experiment, which are independent biological replicates. In all cases, duplicate, triplicate, or quadruplicate technical replicates were conducted for each independent experiment.

CRF1 receptor = conditions: cited from earlier work

## CCC(CC)Nc1cc(C)nc(Oc2c(C)cc(C)cc2C)c1C [CP‐376,395]
Calcitonin receptor
  effect on IP1 accumulation at the calcitonin receptor: no effect on IP1 accumulation at the calcitonin receptor
CRF2 receptor (hCRF2α); 100 µM, CRF2 receptor
  effect on CRF‐mediated cAMP accumulation: no effect
  effect on UCN1‐mediated cAMP accumulation: no effect
CRF2 receptor (hCRF2α); agonist CRF, cAMP
  antagonist potency (pKB): <4
CRF2 receptor (hCRF2α); agonist UCN1, cAMP
  antagonist potency (pKB): <4
CRF1 receptor
  selectivity: selective for the CRF1 receptor
